# Where two headings read alike, the source gives them in different places.
# Assays:
# human FGFR1 = human FGFR1 (Homo sapiens, UniProt P11362); assay: 33P isotope-labeled kinase activity test, wild-type FGFR1; details: 33P-ATP 5 μM, 120 minutes
# Excerpt: (§1) Assay 1: Evaluation of Wild-Type Kinase Inhibitory Activity In Vitro
# human FGFR4 = human FGFR4 (Homo sapiens, UniProt P22455); assay: 33P isotope-labeled kinase activity test, wild-type FGFR4; details: 33P-ATP 100 μM, 120 minutes
# Excerpt: as §1
# [1] = Pharmacokinetics in mice in vivo; details: female, mouse, plasma, Balb/c mice; for AUC: read-out: Area under the curve, AUC; for clearance: read-out: Clearance rate; for half-life: read-out: Half-life T1/2 (converted); for bioavailability: read-out: Bioavailability F
# Protocol: Assay 3: Evaluation of Compounds' Pharmacokinetics
# Experiment purpose: To test the pharmacokinetics of the compound in mice in vivo.
# The pharmacokinetics profile in rodents after the intravenous injection and the oral administration of the compound was tested using a standard protocol. In experiments, the candidate compound was prepared as a clear solution, which was administered to the mice as a single intravenous injection and as an oral administration. The medium for the intravenous injection was 10% DMSO/10% solutol/80% water, and the medium for the oral administration was 0.5% sodium carboxymethylcellulose+0.2% Tween. The whole blood samples within 24 hours were collected. All blood samples were added to the well-labeled plastic centrifuge tubes, to which 0.5M K2-EDTA anticoagulant was added in advance. After the collection of blood samples, the blood samples were centrifuged at 4° C. at 3000 g for 10 minutes. The supernatant plasma was collected, promptly placed in the dry ice, and kept at a temperature of −20° C. or lower. The LC-MS/MS analysis method was used to quantitatively analyze the blood concentration, and the pharmacokinetics parameters, such as peak concentration, peak time, clearance rate, half-life, area under the curve and bioavailability were calculated.
# Chain of human FGFR1 (P11362 22-822): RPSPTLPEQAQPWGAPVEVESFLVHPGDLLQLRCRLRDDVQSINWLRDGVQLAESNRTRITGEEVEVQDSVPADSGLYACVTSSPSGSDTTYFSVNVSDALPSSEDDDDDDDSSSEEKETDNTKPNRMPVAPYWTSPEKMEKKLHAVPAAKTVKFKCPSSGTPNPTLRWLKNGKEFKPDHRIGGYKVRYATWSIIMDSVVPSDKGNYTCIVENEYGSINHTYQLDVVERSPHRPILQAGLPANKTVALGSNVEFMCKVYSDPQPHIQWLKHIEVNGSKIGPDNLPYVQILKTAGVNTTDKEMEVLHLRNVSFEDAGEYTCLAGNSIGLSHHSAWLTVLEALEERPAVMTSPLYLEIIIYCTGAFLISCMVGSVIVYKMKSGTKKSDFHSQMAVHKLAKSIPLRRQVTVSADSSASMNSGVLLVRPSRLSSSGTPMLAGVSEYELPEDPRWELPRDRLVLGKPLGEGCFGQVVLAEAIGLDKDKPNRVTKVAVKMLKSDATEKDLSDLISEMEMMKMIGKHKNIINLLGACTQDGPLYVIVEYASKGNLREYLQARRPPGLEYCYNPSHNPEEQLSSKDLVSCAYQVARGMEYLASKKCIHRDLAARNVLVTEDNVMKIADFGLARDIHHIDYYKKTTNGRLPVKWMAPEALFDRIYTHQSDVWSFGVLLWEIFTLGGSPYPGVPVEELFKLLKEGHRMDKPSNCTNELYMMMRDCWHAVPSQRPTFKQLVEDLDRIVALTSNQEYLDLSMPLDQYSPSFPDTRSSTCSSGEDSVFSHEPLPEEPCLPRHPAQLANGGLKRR
# Chain of human FGFR4 (P22455 22-802): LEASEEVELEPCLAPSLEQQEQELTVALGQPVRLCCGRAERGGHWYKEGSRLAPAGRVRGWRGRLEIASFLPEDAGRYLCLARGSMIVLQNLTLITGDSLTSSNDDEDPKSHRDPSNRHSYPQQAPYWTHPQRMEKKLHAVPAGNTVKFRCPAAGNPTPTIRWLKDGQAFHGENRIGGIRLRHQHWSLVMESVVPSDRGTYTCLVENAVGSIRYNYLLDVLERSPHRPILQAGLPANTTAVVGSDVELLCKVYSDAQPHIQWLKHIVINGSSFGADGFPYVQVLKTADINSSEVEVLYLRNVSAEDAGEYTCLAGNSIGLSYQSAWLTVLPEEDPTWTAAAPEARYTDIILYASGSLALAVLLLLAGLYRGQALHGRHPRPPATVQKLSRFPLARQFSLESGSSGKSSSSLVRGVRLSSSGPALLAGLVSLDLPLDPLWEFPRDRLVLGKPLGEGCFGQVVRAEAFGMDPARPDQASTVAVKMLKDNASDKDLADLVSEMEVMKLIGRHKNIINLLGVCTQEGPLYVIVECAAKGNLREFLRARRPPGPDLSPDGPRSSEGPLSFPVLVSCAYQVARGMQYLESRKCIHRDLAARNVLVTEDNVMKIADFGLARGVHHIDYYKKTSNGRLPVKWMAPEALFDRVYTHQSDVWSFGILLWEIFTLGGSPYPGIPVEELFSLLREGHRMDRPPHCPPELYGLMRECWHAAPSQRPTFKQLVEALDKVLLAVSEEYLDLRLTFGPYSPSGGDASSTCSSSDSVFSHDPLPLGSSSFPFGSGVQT
SMILES,"IC50 (human FGFR1; IC50 FGFR1, wild-type kinase)",IC50 (human FGFR4),also measured
"C=CC(=O)N1CCC(c2cc(-c3sc4c(OC)cc(C)cc4c3C)c3c(N)ncnn23)C1 (single isomer, unassigned) [Example 7]",0.7 nM,8.5 nM,–
"COc1cc(C)cc2cc(-c3cc(C4CCN(C(=O)/C=C/CN(C)C)C4)n4ncnc(N)c34)sc12 (single isomer, unassigned) [Example 13]",0.6 nM,8.7 nM,–
"COc1cc(C)cc2cc(-c3cc(C4CCN(C(=O)CC#N)C4)n4ncnc(N)c34)sc12 (single isomer, unassigned) [Example 15]",1.5 nM,6.2 nM,AUC ([1]; intravenous injection (3 npk)): 2.03 µM·h; clearance ([1]; intravenous injection (3 npk)): 52 mL/min/kg; half-life ([1]; intravenous injection (3 npk)): 48 min; AUC ([1]; oral administration (10 npk)): 4.8 µM·h; bioavailability ([1]; oral administration (10 npk)): 70%
"COc1cc(C)cc2cc(-c3cc(C4CCN(C(=O)CC#N)C4)n4ncnc(N)c34)sc12 (single isomer, unassigned) [Example 16]",0.8 nM,5.3 nM,–
C=CC(=O)N1CCCC(c2cc(-c3cc4cc(C)cc(OC)c4s3)c3c(N)ncnn23)C1 (centres unmarked) [Example 6],1.7 nM,5.4 nM,–
C=CC(=O)N1CCC(O)(c2cc(-c3cc4cc(C)cc(OC)c4s3)c3c(N)ncnn23)C1 (centres unmarked) [Example 14],0.8 nM,6.6 nM,–
C=CC(=O)N1CC[C@H](c2cc(-c3nc4cc(OC)cc(OC)c4s3)c3c(N)ncnn23)C1 [Example 17],> 10000 nM,> 10000 nM,–
CCC(=O)N1CC[C@H](c2cc(-c3cc4c(F)c(OC)cc(OC)c4s3)c3c(N)ncnn23)C1 [Example 21],6.6 nM,138 nM,–
C=CC(=O)N1CC[C@@H](c2cc(-c3cc4c(F)c(OC)cc(OC)c4s3)c3c(N)ncnn23)C1 [Example 22],1.5 nM,9.9 nM,–
CCC(=O)N1CC[C@@H](c2cc(-c3cc4c(F)c(OC)cc(OC)c4s3)c3c(N)ncnn23)C1 [Example 24],2.2 nM,40 nM,–
C=CC(=O)N1CC[C@H](c2cc(-c3cc4cccc(OC)c4o3)c3c(N)ncnn23)C1 [Example 25],250 nM,477 nM,–
CCC(=O)N1CC[C@H](c2cc(-c3cc4cc(C)cc(OC)c4s3)c3c(N)ncnn23)C1 [Example 27],4.7 nM,67 nM,–
CCC(=O)N1CC[C@H](c2cc(-c3nc4cc(OC)cc(OC)c4s3)c3c(N)ncnn23)C1 [Example 28],> 10000 nM,> 10000 nM,–
COc1cc(OC)c2sc(-c3cc([C@@H]4CCN(C(=O)/C=C/CN(C)C)C4)n4ncnc(N)c34)cc2c1F [Example 29],0.5 nM,9.2 nM,–
COc1cc(OC)c2sc(-c3cc([C@H]4CCN(C(=O)/C=C/CN(C)C)C4)n4ncnc(N)c34)cc2c1F [Example 30],1.6 nM,20 nM,–
COc1cc(C)cc2cc(-c3cc([C@@H]4CCN(C(=O)/C=C/CN5CCOCC5)C4)n4ncnc(N)c34)sc12 [Example 31],1.1 nM,9.6 nM,–
COc1cc(C)cc2cc(-c3cc([C@H]4CCN(C(=O)/C=C/CN5CCOCC5)C4)n4ncnc(N)c34)sc12 [Example 32],4.7 nM,80 nM,–
C=CC(=O)N1CC[C@@H](c2cc(-c3nc4cc(OC)cc(OC)c4s3)c3c(N)ncnn23)C1 [Example 34],126 nM,462 nM,–
"C=CC(=O)N1CC[C@H](n2nc(C#Cc3cc(OC)cc(OC)c3)c3c(N)ncnc32)C1 [Reference Example 1, reference compound]",–,–,AUC ([1]; intravenous injection (3 npk)): 5.29 µM·h; clearance ([1]; intravenous injection (3 npk)): 22 mL/min/kg; half-life ([1]; intravenous injection (3 npk)): 42 min; AUC ([1]; oral administration (10 npk)): 11.9 µM·h; bioavailability ([1]; oral administration (10 npk)): 69%

# Now from value to molecule, other results behind:
"IC50 (human FGFR1; IC50 FGFR1, wild-type kinase)",IC50 (human FGFR4),SMILES,also measured
0.1 nM,0.7 nM,"C=CC(=O)N1CCC(c2cc(-c3sc4c(OC)cc(C)cc4c3C)c3c(N)ncnn23)C1 (single isomer, unassigned) [Example 8]",–
0.2 nM,2.6 nM,"COc1cc(C)cc2cc(-c3cc(C4CCN(C(=O)/C=C/CN(C)C)C4)n4ncnc(N)c34)sc12 (single isomer, unassigned) [Example 12]",–
0.1 nM,0.2 nM,"C=CC(=O)N1CCC(c2c(COC)c(-c3cc4cc(C)cc(OC)c4s3)c3c(N)ncnn23)C1 (single isomer, unassigned) [Example 18]",–
–,0.1 nM,"C=CC(=O)N1CCC(c2c(COC)c(-c3cc4cc(C)cc(OC)c4s3)c3c(N)ncnn23)C1 (single isomer, unassigned) [Example 19]","IC50 (human FGFR1; read-out: IC50 FGFR1, wild-type kinase): 0.1 nM"
0.4 nM,0.9 nM,C=CC(=O)N1CCC(c2cc(-c3cc4cc(C)cc(OC)c4s3)c3c(N)ncnn23)C1 (centres unmarked) [Example 1],–
0.6 nM,4.1 nM,C=CC(=O)N1CC[C@@H](c2cc(-c3cc4cc(Cl)cc(OC)c4s3)c3c(N)ncnn23)C1 [Example 4],–
0.3 nM,0.7 nM,C=CC(=O)N1CC[C@H](c2cc(-c3cc4cc(Cl)cc(OC)c4s3)c3c(N)ncnn23)C1 [Example 5],–
0.7 nM,3.3 nM,C=CC(=O)N1CC[C@H](c2cc(-c3sc4c(OC)cc(Cl)cc4c3C)c3c(N)ncnn23)C1 [Example 9],–
0.2 nM,1.5 nM,CC#CC(=O)N1CC[C@@H](c2cc(-c3cc4cc(C)cc(OC)c4s3)c3c(N)ncnn23)C1 [Example 10],–
0.1 nM,0.1 nM,CC#CC(=O)N1CC[C@H](c2cc(-c3cc4cc(C)cc(OC)c4s3)c3c(N)ncnn23)C1 [Example 11],–
0.2 nM,0.8 nM,CC#CC(=O)N1CCC(c2c(COC)c(-c3cc4cc(C)cc(OC)c4s3)c3c(N)ncnn23)C1 (centres unmarked) [Example 20],–
0.2 nM,0.2 nM,C=CC(=O)N1CC[C@H](c2cc(-c3cc4c(F)c(OC)cc(OC)c4s3)c3c(N)ncnn23)C1 [Example 23],–
1.2 nM,4.2 nM,CCC(=O)N1CC[C@@H](c2cc(-c3cc4cc(C)cc(OC)c4s3)c3c(N)ncnn23)C1 [Example 26],–
0.5 nM,0.9 nM,C=CC(=O)N1CC[C@H](c2cc(-c3cc4cccc(OC)c4s3)c3c(N)ncnn23)C1 [Example 33],–
